Data on 23 compounds can be found in article PMC7357169, “Blinded, Multicenter Evaluation of Drug-induced Changes in Contractility Using Human-induced Pluripotent Stem Cell-derived Cardiomyocytes” (Toxicological Sciences, 2020).

Read-outs that look alike come from different tables or passages of the source.

Series [1] concerns cardiac contractility. To be noted: cited from earlier work; for Expected effect on contractility in isolated cardiomyocytes/heart muscles / IC50 / EC50: Refs of Supplementary Table 1, isolated cardiomyocytes/heart muscles; for IC50: negative inotropy, read-out: Expected effect on contractility in isolated cardiomyocytes/heart muscles, IC50; for EC50: read-out: Expected effect on contractility in isolated cardiomyocytes/heart muscles, EC50.

In series [2] the test system is heart. Further details: method as in Refs column of Supplementary Table 1. Particulars: Refs of Supplementary Table 1; cited from earlier work.
For series [3] the following is noted: cited from earlier work; for FTPC: free therapeutic plasma concentration, Refs of Supplementary Table 1; for FPTC (free plasma therapeutic concentration): ref Supplementary Table 1.
The subject of series [4] is hiPSC-CM EHTs. Kind of series: EHT contractility with beat rate slowed by 300 nM ivabradine and electrical pacing 0.5-2.0 Hz. To be noted: EHTs with 300 nM ivabradine, paced; only at 0.5 and 0.7 Hz, sometimes at 1 Hz, never at 1.5 or 2 Hz; high concentration bolus. It counts as cell-based, human. The procedure: We extended these studies to the 3D EHT platform, this time slowing spontaneous beating to < 0.5 Hz with 300 nM ivabradine, a pharmacological blocker of the “funny” If current ([Bois et al., 1996]). […] Whereas force-frequency relationships was negative above 1.5 Hz, it was positive between 0.5 and 1.5 Hz, evidenced by a 147% increase in force generation concurrent with significant shortening of CT and RT (Supplementary Figure 6). We therefore re-evaluated 6 of the PIs in the presence of 300 nM ivabradine with electrical pacing at 0.5, 0.7, 1.0, 1.5, and 2.0 Hz. These also included epinephrine, levosimendan, and pimobendan, which had been incorrectly predicted by EHT:R-PAT and/or EHT:ERC platform-cell combinations. […] Thus, in both 2D and 3D configurations, lower beating frequencies led to increased predictivity for PIs.
Figure 5. Slowed beat rate increases the predictivity of positive inotropes (PIs) in 3D engineered heart tissues (EHTs). Contraction analysis was carried out using EHTs with 6 of the PIs from the drug test set: epinephrine (Epi), forskolin (For), levosimendan (Lev), pimobendan (Pim), dobutamine (Dob), and milrinone (Mil) which had been predicted with variable accuracy (Figure 4A, web tool). […] Scatter plots show percentage changes relative to baseline at respective frequency. Averaged peaks for force are shown for baseline (BL, black peaks) versus after treatment in EHTs paced at 0.5 Hz (blue peaks) or 2.0 Hz (red peaks). Dunnett’s stats versus baseline at respective frequency: *p < .05; **p < .01; ***p < .001; ****p < .0001.
Supplementary Figure 6. Positive force frequency relationship in EHTs paced between 0.5 and 1.5 Hz. Spontaneous beat rate of EHTs was reduced by 3 hour pre-treatment with 300 nM ivabradine, an If current inhibitor. […] CA increased from 0.5 to 1.5 Hz but plateaued and declined at higher frequencies. These changes were reflected in the CT and RT data. Dunnett's stats vs vehicle control: *, P<0.05; **, P<0.01; ***, P<0.001; ****, P<0.0001.

For series [5], the system named is hiPSC-CMs. Kind of series: Training set contractility in hiPSC-CMs on TTM, CellOPTIQ and EHT platforms. It counts as cell-based, human. The protocol: The training set of 8 drugs was used to test and refine protocols. […] For each parameter, the percentage change in drug-treated samples relative to their respective vehicle control was calculated using the formula ([drug/drug baseline]/[vehicle/vehicle baseline])*100–100. […] These studies allowed unification of SOPs, although physical and technical constraints between the platforms meant that some unavoidable differences remained (Supplementary Table 2).
Supplementary Figure 3: Training sets to unify drug testing procedures. […] The percentage change in drug treated samples is relative to their respective vehicle control. Unpaired T-test. * p<0.05; ** p<0.01; *** p<0.001; **** p<0.0001.

Setting [6] is: heart muscle, at 500 µM, ref (Kirby et al. 1992), (Baudet et al. 1993).

As to `CC(C)[C@@]1(O)[C@@H](OC(=O)c2ccc[nH]2)[C@@]2(O)[C@@]3(C)C[C@]4(O)O[C@@]5([C@H](O)[C@@H](C)CC[C@]35O)[C@@]2(O)[C@@]14C` [ryanodine], in series [1], the “Expected effect on contractility in isolated cardiomyocytes/heart muscles” value is reported as “NI, NCl, species dependent biphasic” and the IC50 was roughly 10 nM.
On to `Cn1c(=O)c2c(ncn2C)n(C)c1=O` [caffeine], for which the “Expected effect on contractility in isolated cardiomyocytes/heart muscles” value in series [1] is “Small PI and PL at 100 µM, transient large PI, NL at >10 mM”.
`CC(=O)Oc1ccccc1C(=O)O` [Acetylsalicylic acid]: the “Expected cardiac effects in vivo” value in series [2] was “None”. Besides, in series [3], the FTPC is 0.3 to 2 µM and the “FPTC (free plasma therapeutic concentration)” value was 0.3 to 2 µM. In series [1], the “Expected effect on contractility in isolated cardiomyocytes/heart muscles” value is recorded as “None”.
`CN(C)C/C=C(/c1ccc(Br)cc1)c1cccnc1` [Zimelidine]: the “Expected cardiac effects in vivo” value in series [2] is “None (at ther. doses), QT and QRS widening at high doses”.
As for `CC(C)NCC(O)COc1ccc(CC(N)=O)cc1` (stereo not shown) [Atenolol], the “Expected cardiac effects in vivo” value in series [2] is recorded as “NI, NC, ND”. Also, the “Expected effect on contractility in isolated cardiomyocytes/heart muscles” value in series [1] is “None (in absence of agonist) until 3000 µM (in contrast to e.g. propranolol)”.
As to `O=C(NCC1CCCCN1)c1cc(OCC(F)(F)F)ccc1OCC(F)(F)F` (stereo not shown) [Flecainide], the IC50 in series [1] is 300 nM.
On to `CCC(C)n1ncn(-c2ccc(N3CCN(c4ccc(OCC5COC(Cn6cncn6)(c6ccc(Cl)cc6Cl)O5)cc4)CC3)cc2)c1=O` (stereo not shown) [Itraconazole], for which, in series [3], the FTPC was 0.00086 µM and the “FPTC (free plasma therapeutic concentration)” value is 0.00086 µM. Also, in series [1] (at 0.3 µM, rabbit heart, ref (Head et al. 2015), (Qu et al. 2013), (Bellmann 2007)), the NI is -30%.
For `COc1ccc(-c2nc3ccc(C4=NNC(=O)CC4C)cc3[nH]2)cc1` (stereo not shown) [Pimobendan], the “Expected cardiac effects in vivo” value in series [2] is “PI, small PC”. Besides, in series [3], the FTPC is 0.005 to 0.01 µM and the “FPTC (free plasma therapeutic concentration)” value is 0.005 to 0.01 µM. Besides, the CA response entry in series [4] is on record as “increased contraction amplitude”. For the same compound, the EC50 in series [1] is 34000 nM.
Regarding `C[C@H](CS)C(=O)N1CCC[C@H]1C(=O)O` [Captopril], the “Expected cardiac effects in vivo” value in series [2] was “None”. In series [3], the FTPC was 1 to 2 µM and the “FPTC (free plasma therapeutic concentration)” value was 1 to 2 µM. For the same compound, the “Expected effect on contractility in isolated cardiomyocytes/heart muscles” value in series [1] is on record as “None”.
In the case of `COc1ccc(C(=O)N2CCCc3cc(C4=NNC(=O)SC4C)ccc32)cc1OC` (stereo not shown) [EMD 57033], in series [3], the FTPC is 16 µM. In addition, in series [1], the “Expected effect on contractility in isolated cardiomyocytes/heart muscles” value is “PI, NL” and the EC50 is roughly 5000 nM.
Take `Cc1ccc(N(CC2=NCCN2)c2cccc(O)c2)cc1` [Phentolamine]: in series [3] (patients, ref Wallis et al., 2015), the “free plasma concentration in patients” value is “approximately 2.5 µM”. The “inotropic effect at concentrations above 10 µM” value in series [1] (above 10 µM, via modulation of fast sodium and L-type calcium channels, ref Rosen et al., 1971, Sada, 1978) is given as “negative inotropy”. In addition, in series [1] (approximately 2.5 µM in patients, ref Wallis et al., 2015), the “inotropic effect at free plasma concentrations” value was “neutral inotrope”. Further, in series [1], the IC50 was roughly 20000 nM.
For the compound `CNC(=O)c1cc(Oc2ccc(NC(=O)Nc3ccc(Cl)c(C(F)(F)F)c3)cc2)ccn1` [Sorafenib], the “Expected cardiac effects in vivo” value in series [2] was “None or NI at high doses, delayed cardiotox”. In series [3], the FTPC was 0.03 µM and the “FPTC (free plasma therapeutic concentration)” value is 0.03 µM. Further, in series [1], the “Expected effect on contractility in isolated cardiomyocytes/heart muscles” value is “None (feline and canine CM, but cell death), NI (rat heart)”.
On to `C/C=C(/C)C(=O)O[C@H]1C(C)=C2[C@H]([C@@H]1OC(=O)CCCCCCC)[C@@](C)(OC(C)=O)C[C@H](OC(=O)CCC)[C@@]1(O)[C@H]2OC(=O)[C@@]1(C)O` [thapsigargin], for which the NI in series [1] (setting [6]) is recorded as roughly 50%; in series [1] (isolated myocytes, at 0.1 µM, ref (Kirby et al. 1992), (Baudet et al. 1993)), roughly 90%. Also, the NL in series [1] (setting [6]) is roughly 20%.
Turning to `C[C@H]1O[C@@H](O[C@H]2[C@@H](O)C[C@H](O[C@H]3[C@@H](O)C[C@H](O[C@H]4CC[C@@]5(C)[C@H](CC[C@@H]6[C@@H]5C[C@@H](O)[C@]5(C)[C@@H](C7=CC(=O)OC7)CC[C@]65O)C4)O[C@@H]3C)O[C@@H]2C)C[C@H](O)[C@@H]1O` [digoxin], the RT response entry in series [5] (2D configuration) was “tended to increase RT”. The “inotropy (CA) response” value in series [5] (trend or significant response, Supplementary Figure 3) is reported as “positive inotropy”. In addition, in series [2], the “Expected cardiac effects in vivo” value is reported as “PI, arrhythmias”. In addition, the “Expected effect on contractility in isolated cardiomyocytes/heart muscles” value in series [1] is on record as “PI+ PL (< 1 µM, slowly developing, t1/2 conc.-dependent) NI + diast. shortening (>1 µM)”.
In the case of `COc1ccc(CCN(C)CCCC(C#N)(c2ccc(OC)c(OC)c2)C(C)C)cc1OC` (stereo not shown) [Verapamil], in series [2], the “Expected cardiac effects in vivo” value is listed as “NI (direct) partially masked by adrenergic activation (indirect), NC or none, ND (direct)”. Further, the IC50 in series [1] is 100 nM.
Regarding `COC(=O)C1=C(C)NC(C)=C([N+](=O)[O-])C1c1ccccc1C(F)(F)F` (stereo not shown) [Bay K 8644], the “Expected cardiac effects in vivo” value in series [2] was “PI (indirect NC because of RR increase)”. Also, in series [1], the “Expected effect on contractility in isolated cardiomyocytes/heart muscles” value is recorded as “PI, NL”.
For `CC(C)(C)NCC(O)c1cc(O)cc(O)c1` (stereo not shown) [Terbutaline], in series [3], the FTPC was 1.3 µM and the “FPTC (free plasma therapeutic concentration)” value was 1.3 µM. In addition, the EC50 in series [1] is 3000 nM.
With `Clc1cccc(Cl)c1N=C1NCCN1` [Clonidine], the “Expected cardiac effects in vivo” value in series [2] is “NI, NC”. In addition, in series [3], the FTPC was 0.002 to 0.004 µM and the “FPTC (free plasma therapeutic concentration)” value was 0.002 to 0.004 µM. In series [1], the “Expected effect on contractility in isolated cardiomyocytes/heart muscles” value is recorded as “None”.
Take `CNC[C@H](O)c1ccc(O)c(O)c1` [Epinephrine]: the “Expected cardiac effects in vivo” value in series [2] is reported as “PI, PC”. In series [3], the FTPC is 0.0002 to 0.050 µM and the “FPTC (free plasma therapeutic concentration)” value was 0.0002 to 0.05 µM. For the same compound, the CA response entry in series [4] is reported as “increased contraction amplitude”. Also, the EC50 in series [1] is 100 nM.
Consider `CN(C)CCCC1(c2ccc(F)cc2)OCc2cc(C#N)ccc21` (stereo not shown) [Citalopram], for which the “Expected cardiac effects in vivo” value in series [2] was “None (at therapeutic doses), higher risk of TdP”. The FTPC in series [3] is 0.05 µM. Moreover, the “FPTC (free plasma therapeutic concentration)” value in series [3] is 0.05 µM. The NI is reported as -57% in series [1] (at 30 µM, in hEHT, ref (Witchel et al. 2002), (Mannhardt et al. 2017), (Rao 2007)) and -38% in series [1] (at 30 µM, in human atria, ref (Witchel et al. 2002), (Mannhardt et al. 2017), (Rao 2007)). Further, in series [1], the “Expected effect on contractility in isolated cardiomyocytes/heart muscles” value is on record as “NI at 30 µM”.
In the case of `COc1ccc(Cl)cc1C(=O)NCCc1ccc(S(=O)(=O)NC(=O)NC2CCCCC2)cc1` [Glibenclamide], the “Expected cardiac effects in vivo” value in series [2] is “None or PI in ischemia”. Also, in series [3], the FTPC is 0.02 to 0.06 µM and the “FPTC (free plasma therapeutic concentration)” value is 0.02 to 0.06 µM. The “Expected effect on contractility in isolated cardiomyocytes/heart muscles” value in series [1] was “None; PI in ischemia or presence of KATP opener; NI in adrenalectomized dogs, NE in isolated dog heart trabeculae”.
For the compound `CC(=O)Nc1ccc(O)cc1` [Paracetamol], the “Expected cardiac effects in vivo” value in series [2] is reported as “None”. Further, in series [3], the FTPC was 50 µM and the “FPTC (free plasma therapeutic concentration)” value is 50 µM. The “Expected effect on contractility in isolated cardiomyocytes/heart muscles” value in series [1] was “None”.
As to `CCCc1nn(C)c2c(=O)[nH]c(-c3cc(S(=O)(=O)N4CCN(C)CC4)ccc3OCC)nc12` [Sildenafil], the “Expected cardiac effects in vivo” value in series [2] is on record as “None or PI+PC (indirect)”. Also, in series [1], the “Expected effect on contractility in isolated cardiomyocytes/heart muscles” value was “None”.
